# From PubChem BioAssay (NCI)
# Several values for one entry are separate records, joined by “and”; a condition that tells them apart may be missing. Equal values may be shown once.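 These data come from cells grown in 96-well plates and exposed to compound for 48 hours at five concentrations. GI50: concentration for 50% inhibition of growth. TGI denotes the concentration required for complete inhibition of growth.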
# Key:
# Assay in all cases: DTP human tumour cell line panel, 48 h
# SN12C renal = test system: SN12C renal
# A549 NSCLC = test system: A549 NSCLC
# NCI-H23 lung = test system: NCI-H23 lung
# HCC-2998 colon = test system: HCC-2998 colon
# KM12 colon = test system: KM12 colon
# K-562 leukemia = test system: K-562 leukemia
# MALME-3M melanoma = test system: MALME-3M melanoma
# MDA-MB-435 = test system: MDA-MB-435
# BT-549 breast = test system: BT-549 breast
# DU-145 prostate = test system: DU-145 prostate
Structure (SMILES),TGI (SN12C renal),TGI (A549 NSCLC),TGI (NCI-H23 lung),TGI (HCC-2998 colon),TGI (KM12 colon),TGI (K-562 leukemia),TGI (MALME-3M melanoma),TGI (MDA-MB-435),TGI (BT-549 breast),TGI (DU-145 prostate),GI50 (SN12C renal),GI50 (MDA-MB-435),GI50 (BT-549 breast),GI50 (A549 NSCLC),GI50 (NCI-H23 lung),GI50 (HCC-2998 colon),GI50 (KM12 colon),GI50 (K-562 leukemia),GI50 (DU-145 prostate),GI50 (MALME-3M melanoma)
OCC(O)C(O)C(O)c1nn(-c2ccc(F)cc2)c2nc3cc(Cl)c(Cl)cc3nc12 (stereo not given),62.4 µM,32 µM,48 µM,> 100 µM,84.8 µM,43.2 µM,23.5 µM,–,–,–,–,–,–,–,–,–,–,–,–,–
Nc1ncc2ncn(C3CCC(CO)O3)c2n1 (stereo not given),> 100 µM,> 100 µM,> 100 µM,–,> 100 µM,> 100 µM,–,> 100 µM,> 100 µM,> 100000 nM,–,–,–,–,–,–,–,–,–,–
N#Cc1cc(S(=O)(=O)Nc2nc3cc(Cl)ccc3o2)c(SCc2ccccc2)cc1Cl,29.1 µM,27.2 µM,28.9 µM,25.1 µM,28.1 µM,27.4 µM,–,29.7 µM,26.2 µM,–,15.4 µM,16.2 µM,13.4 µM,14200 nM,15.6 µM,12600 nM,14.9 µM,14.3 µM,–,–
Cc1cc(S(N)(=O)=O)c(S/C(=N\NS(=O)(=O)c2ccccc2)c2ccc(Cl)cc2)cc1Cl,> 100 µM,> 100 µM,> 100 µM,–,> 100 µM,> 100 µM,> 100 µM,> 100 µM,> 100 µM,> 100000 nM,46.5 µM,> 100 µM,> 100 µM,> 100000 nM,87.9 µM,–,> 100 µM,59 µM,> 100000 nM,65.4 µM
COc1cc2c(c(OC)c1OC)C(=O)NCCC2,> 100 µM,> 100 µM,> 100 µM,> 100 µM,> 100 µM,> 100 µM,> 100 µM,–,–,–,–,–,–,–,–,–,–,–,–,–
C[C@H]1CC[P+](C)(c2ccccc2)C1 (stereo not given in full),> 100 µM,> 100 µM,> 100 µM,> 100 µM,> 100 µM,> 100 µM,> 100 µM,–,–,–,–,–,–,–,–,–,–,–,–,–
O=C(O)CSc1n[nH]c(-c2ccco2)n1,> 100 µM,> 100 µM,> 100 µM,> 100 µM,> 100 µM,> 100 µM,> 100 µM,–,–,–,–,–,–,–,–,–,–,–,–,–
N#CCc1cccc(CC#N)c1Br,> 100 µM,> 100 µM,> 100 µM,–,> 100 µM,> 100 µM,> 100 µM,–,–,–,–,–,–,–,–,–,–,–,–,–
Nn1c(-c2ccc(Cl)cc2)nc2c(-c3ccc(Cl)cc3)nc3ccc(Cl)cc3c2c1=O,> 100 µM,> 100 µM,> 100 µM,–,> 100 µM,48.5 µM,65.4 µM,> 100 µM,60.2 µM,> 100000 nM,7.46 µM,> 100 µM,14.5 µM,4800 nM,33 µM,–,> 100 µM,11.4 µM,4960 nM,21.3 µM
Cc1ccc2ccc(-c3ccccc3)c3c2c1C(=O)c1ccccc1C3=O,> 100 µM,> 100 µM,> 100 µM,> 100 µM,> 100 µM,> 100 µM,> 100 µM,–,–,–,–,–,–,–,–,–,–,–,–,–
Cc1ccc(S(=O)C(C)C(Cl)c2ccccc2)cc1 (stereo not given),> 100 µM,–,> 100 µM,> 100 µM,–,> 100 µM,–,–,–,–,–,–,–,–,–,–,–,–,–,–
Cn1c(=O)c2c(nc(N/N=C/c3ccccc3C(=O)O)n2C)n(C)c1=O,> 100 µM,> 100 µM,> 100 µM,–,> 100 µM,> 100 µM,> 100 µM,> 100 µM,> 100 µM,> 100000 nM,–,–,–,–,–,–,–,–,–,–
CCCCCCCCCCCCCCCC[n+]1ccccc1,1.9 µM,1.86 µM and 2.95 µM,1.43 µM,1.43 µM and 1.68 µM,–,1.64 µM,–,–,–,1990 nM and 2310 nM,0.563 µM,–,–,468 nM and 1210 nM,0.295 µM,339 nM and 363 nM,–,0.278 µM,717 nM and 938 nM,–
Cn1cnnc1[S-].[Au+].c1ccc([PH+](c2ccccc2)c2ccccc2)cc1,3.12 µM,21.3 µM,–,3.23 µM,3.22 µM,–,2.91 µM,2.98 µM,2.76 µM,2660 nM,1.7 µM,1.57 µM,1.41 µM,2920 nM,–,1800 nM,1.71 µM,–,1340 nM,1.49 µM
O=C(O)c1ccccc1NCn1c(=S)sc2ccccc21,> 100 µM,> 100 µM,63.4 µM,–,> 100 µM,> 100 µM,> 100 µM,> 100 µM,> 100 µM,> 100000 nM,–,–,–,–,–,–,–,–,–,–
Clc1ccc(CN2CCCN(Cc3ccc(Cl)cc3)C2c2cc3ccccc3c3ccccc23)cc1,> 100 µM,> 100 µM,> 100 µM,–,> 100 µM,–,37.6 µM,> 100 µM,> 100 µM,> 100000 nM,–,–,–,–,–,–,–,–,–,–
CCc1ccc2c(c1)N(CCO)C1=C(C(=O)OC1)C2c1cc(OC)c(OC)c(OC)c1 (stereo not given),> 50 µM,> 50 µM,> 14.4 µM,> 10.3 µM,0.987 µM,> 30.4 µM,> 50 µM,–,> 15.7 µM,856 nM,0.345 µM,–,0.564 µM,236 nM,0.219 µM,327 nM,0.163 µM,0.176 µM,174 nM,0.218 µM
O=C1OC(=O)C([Se]c2ccccc2)=C1[Se]c1ccccc1,> 100 µM,> 100 µM,> 100 µM,–,–,> 100 µM,> 100 µM,–,–,–,–,–,–,–,–,–,–,–,–,–
COc1cccc(/C=N\NC(=O)C(C)SC(C)C(=O)N/N=C/c2cccc(OC)c2)c1 (stereo not given),42.8 µM,20.6 µM,73.2 µM,47.5 µM,> 67.3 µM,> 100 µM,> 100 µM,–,–,–,–,–,–,–,–,–,–,–,–,–
O=C(/C=C/c1ccccc1O)c1ccccc1Cl,> 100 µM,> 100 µM,> 100 µM,> 100 µM,> 100 µM,> 100 µM,> 100 µM,–,–,–,–,–,–,–,–,–,–,–,–,–
CC1(C)OC(=O)C(=C2CCC(C(=O)Nc3cccc(C(F)(F)F)c3)N2)C(=O)O1 (stereo not given),> 100 µM,> 100 µM,> 100 µM,> 100 µM,> 100 µM,> 100 µM,> 100 µM,–,–,–,–,–,–,–,–,–,–,–,–,–
O=C1C(=O)C2(CC1S(=O)(=O)c1ccccc1)c1ccccc1-c1ccccc12 (stereo not given),78.1 µM,63.7 µM,30.2 µM,30.1 µM,33.9 µM,59.3 µM,> 10 µM,–,–,–,–,–,–,–,–,–,–,–,–,–
O=C1CCC(=O)N1Sc1ccccc1,> 100 µM,> 100 µM,> 100 µM,–,> 100 µM,> 100 µM,–,–,–,–,–,–,–,–,–,–,–,–,–,–
